Experimental data taken from patent US12600808B2, “Crosslinkable prepolymers for chemically stable polymer gels” (priority 2020, dated 2026).

What was measured:
Assay type in all cases: physicochemical
[1] = Photopolymerization efficiency, gravimetric determination of the cured polymer mass; conditions: photopolymerization efficiency test per application example 5 with antioxidant
Experimental: The photopolymerization efficiency was examined by gravimetric determination of the cured polymer mass: Solutions containing prepolymer prepared according to examples 5-7, 10 or 11 (15% w/w) and photoinitiator (0.1% w/w) were prepared in deionized water. 500 mg of the premixed solutions were loaded into a 2 mL polystyrene cuvette and irradiated for 60 s with a laser (X=405 nm, p=10 mW) from the side. The solid hydrogels were removed, wiped to remove residual liquid, and weighed. The ratio of solid, cure material to liquid, uncured material was calculated and used as a measure for the photopolymerization efficiency. The setup used is depicted in FIG. 2: 301 represents the polystyrene cuvette, 302 the liquid prepolymer composition, 303 the solidified hydrogel and 304 the laser beam.
The photopolymerization efficiency of the prepolymers PEG-DMA (prepared according to example 7), linker-containing PEG-dimethacrylates (example 5-7), PEG-DAAm (example 10), linker-containing PEG-diacrylamides (example 11) and 1OR5-Dimethacrylate (example 12) was compared according to application example 5: […]

[2] = Retainment of antioxidants in hydrogel samples, leaching with weekly exchange of heavy water
Experimental: The retainment properties of antioxidants were tested by preparing and aging antioxidant-doped samples according to application example 3. The heavy water the hydrogels samples were aged in was exchanged weekly, followed by testing of the heavy water. Detection of decomposition was observed by NMR spectroscopy with the formation of decomposition markers, such as formic acid, in the liquid. This was quantified with the addition of an internal standard.
Retainment of BHT and sodium fenozan was studied according to […].

[3] = Antioxidant testing: accelerated aging of antioxidant-doped hydrogels in D2O, decomposition markers by NMR; conditions: antioxidant added to prepolymer formulation (BHT with 1% DMSO)
Excerpt: The influence of different antioxidants on hydrogel stability was studied by doping prepolymer formulations with specified antioxidants prior to photopolymerization as described in application example 1, followed by accelerated aging experiments in heavy water (D20).
Detection of decomposition was observed by NMR spectroscopy with the formation of decomposition markers, such as formic acid, in the liquid. This was quantified with the addition of an internal standard.

Decomposition markers in leached solvent ([2]; after 3 weeks of leaching) [mM] | Decomposition (decomposition marker such as formic acid) of hydrogel with antioxidant [3] | SMILES | Reduction of polymerized mass in presence of antioxidant [1] | Retainment of antioxidant in hydrogel (decomposition markers and antioxidant in leached solvent) ([2]; leaching experiments over three weeks)
1.4 | no decomposition was observed | CC(C)(C)c1cc(CCC(=O)[O-])cc(C(C)(C)C)c1O.[Na+] [sodium fenozan] | no reduction of polymerized masses was observed | –
– | no decomposition was observed | Cc1cc(C(C)(C)C)c(O)c(C(C)(C)C)c1 [BHT] | no reduction of polymerized masses was observed | lack of decomposition markers and antioxidant in the leached solvent
